The text below walks through data of patent US10611740B2, “Aryl dihydro-2H-benzo[b][1,4]oxazine sulfonamide and related compounds for use as agonists of RORγ and the treatment of disease” (Lycera Corporation, priority 2015, dated 2020).

SMILES strings stand for the structures. pEC50: −log10 of the molar value. Where only a bound is given, the exact number is not on record here.

One assay has as its target T1, RORγ-LBD (Homo sapiens, UniProt P51449).
T1 construct: made in house; host or cells: SF9 cells (baculovirus)
T1 sequence (P51449 269-508 limits assumed): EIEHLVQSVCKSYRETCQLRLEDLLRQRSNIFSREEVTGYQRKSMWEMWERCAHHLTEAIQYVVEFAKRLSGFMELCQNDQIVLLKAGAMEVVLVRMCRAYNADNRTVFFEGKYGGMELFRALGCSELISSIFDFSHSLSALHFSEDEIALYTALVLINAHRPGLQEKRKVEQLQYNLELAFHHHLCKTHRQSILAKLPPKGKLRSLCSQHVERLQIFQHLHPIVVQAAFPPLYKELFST
Description: RORγ-Ligand Binding Domain (LBD) TR-FRET Assay.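 On TR-FRET Assay Max Response: 665/615 nm ratio relative to signal without ursolic acid or compound set at 100.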 Format: biochemical. Summed up:
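This TR-FRET coactivator assay pairs baculovirus-expressed His-RORγ-LBD (~3 nM final) with biotin-SRC1 LXXLL peptide at 200 nM final in pH 7.0 Tris/KCl/EDTA/DTT/BSA buffer.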
For orientation: TR-FRET usually uses a lanthanide donor and a delayed reading to cut background.

A further assay addresses T2, Gal4-RORγ-LBD (Homo sapiens, UniProt P51449).
T2 construct: expressed in transfected cells; host or cells: HEK-293 cells (pcDNA3.1neo plasmid)
T2 sequence (P51449 269-508 limits assumed): T1 sequence (P51449 269-508 limits assumed)
Description: Gal4-RORγ Luciferase Reporter Assay in HEK-293T Cells. The class given is cell-based. The settings on record: HEK-293 cells, 2 μM ursolic acid. Summed up:
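Luminescence read-out (One-Glo, 10 min RT) after overnight compound exposure at 37 °C in HEK-293 cells carrying Gal4-RORγ-LBD plus a Gal4-luciferase reporter, in the presence of 2 μM ursolic acid. Max Response is the upper plateau from a 4-parameter logistic fit, normalized to untreated signal = 100.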
Background: A reporter such as luciferase makes a cellular process visible.

As for `CC(=O)N[C@H]1C[C@@](C[C@H]2CN(S(=O)(=O)c3cccc(C(F)(F)F)c3)c3cc(-c4cc(F)ccc4F)ccc3O2)(C(=O)O)C1` [Compound 89A, (1s,3R)-3-acetamido-1-(((S)-6-(2,5-difluorophenyl)-4-((3-(trifluoro-methyl)phenyl)sulfonyl)-3,4-dihydro-2H-benzo[b][1,4]oxazin-2-yl)methyl)cyclobutane-1-carboxylic acid], on RORγ-LBD, the pEC50 (commonly the negative decadic logarithm of the EC50, by convention in mol/L) is 5.30 to 6.30 and the “TR-FRET Assay Max Response” value is reported as “*** (The symbol “***” indicates a value in the range of greater than 150 to 200)”. On Gal4-RORγ-LBD, the pEC50 was 5.30 to 6.30 and the “Gal4-RORγ Assay Max Response” value is “** (The symbol “**” indicates a value in the range of greater than 90 to 150)”.
In the case of `CC(=O)N[C@H]1C[C@](C[C@H]2CN(S(=O)(=O)c3cccc(C(F)(F)F)c3)c3cc(-c4cc(F)ccc4F)ccc3O2)(C(=O)O)C1` [Compound 89B, (1r,3S)-3-acetamido-1-(((S)-6-(2,5-difluorophenyl)-4-((3-(trifluoro-methyl)phenyl)sulfonyl)-3,4-dihydro-2H-benzo[b][1,4]oxazin-2-yl)methyl)cyclobutane-1-carboxylic acid], on RORγ-LBD, the pEC50 was > 6.30 and the “TR-FRET Assay Max Response” value is “** (The symbol “**” indicates a value in the range of greater than 90 to 150)”. For the same molecule, on Gal4-RORγ-LBD, the negative-log EC50 (pEC50) is 5.30 to 6.30 and the “Gal4-RORγ Assay Max Response” value is “** (The symbol “**” indicates a value in the range of greater than 90 to 150)”.
